Ten compounds from patent US9284308B2, “Methylene linked quinolinyl modulators of RORγt” (Janssen Pharmaceutica NV, priority 2013, dated 2016) can be followed below.

Structures can show the parent of a compound that is named as a salt.

One assay concerns the target T1, human RORγt LBD (Homo sapiens, UniProt P51449).
T1 construct: expressed in transfected cells; host or cells: HEK293T
T1 sequence (P51449 258-518): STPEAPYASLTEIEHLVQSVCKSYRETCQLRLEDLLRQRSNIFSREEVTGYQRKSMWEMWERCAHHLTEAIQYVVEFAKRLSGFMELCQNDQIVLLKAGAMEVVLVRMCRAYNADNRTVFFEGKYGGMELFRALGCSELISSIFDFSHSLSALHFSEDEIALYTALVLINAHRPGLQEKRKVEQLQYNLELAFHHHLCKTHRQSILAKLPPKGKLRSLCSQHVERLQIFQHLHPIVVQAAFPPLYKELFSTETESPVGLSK
The experiment in a line: RORγt (LBD) reporter assay in HEK293T cells. The class given is cell-based. Conditions: for inhibition at 6 µM: HEK-293T, read-out: RORγt (LBD) Reporter Assay, % inhibition @ 6 μM, 6 μM compound. The text has this: RORγt (LBD) Reporter Assay
Cells used in the assay were co-transfected with two constructs. The first construct, pBIND-RORγt LBD, contained the wild type human RORγt LBD fused to the DNA binding domain of the GAL4 protein. The second construct, pGL4.31 (Promega Cat no. C935A), contained multiple GAL4 responsive DNA elements upstream of firefly luciferase. […] The mutant construct was called pBIND-RORγt-AF2.
The pBIND vector contains the GAL4 DNA Binding Domain (GAL4 DBD) and the renilla luciferase gene under control of the SV40 promoter. Renilla luciferase expression serves as a control for transfection efficiency and cell viability.
The reporter assay was performed by transiently transfecting HEK293T cells with 5 μg of pBIND-RORγt LBD or pBIND-RORγt LBD-AF2 and 5 μg pGL4.31 (Promega Cat no. C935A) using Fugene 6 (Invitrogen Cat no. E2691) at a 1:6 ratio of DNA:Fugene 6 in a T-75 flask in which cells were at least 80% confluent. Twenty four hours after bulk transfection, cells were plated into 96-well plates at 50,000 cells/well in phenol-red free DMEM containing 5% Lipid Reduced FCS and Pen/Strep. Six hours after plating, cells were treated with compounds for 24 hours. Media was removed and cells were lysed with 50 μL 1× Glo Lysis Buffer (Promega). Dual Glo Luciferase Reagent (50 μL/well) was then added and firefly luciferase luminescence was read on an Envision after a ten minute incubation. Finally, Stop and Glo reagent (50 μL/well) was added and renilla luciferase luminescence was read on an Envision after a ten minute incubation. […] Agonist compounds increase RORγt-driven luciferase expression, and antagonist or inverse agonist compounds decrease luciferase expression.
In general terms: In a reporter assay the amount or activity of a reporter protein is the signal.

The target of assay [1] is T2, human RORγt ligand binding domain (RORγt LBD) (Homo sapiens, UniProt P51449).
T2 construct: His-tag (N); TurboTEV protease cleavage site (ENLYFQG) (N); made in house; host or cells: E. coli (pHIS1, modified pET vector)
T2 sequence (P51449 with tags, fused parts or gaps): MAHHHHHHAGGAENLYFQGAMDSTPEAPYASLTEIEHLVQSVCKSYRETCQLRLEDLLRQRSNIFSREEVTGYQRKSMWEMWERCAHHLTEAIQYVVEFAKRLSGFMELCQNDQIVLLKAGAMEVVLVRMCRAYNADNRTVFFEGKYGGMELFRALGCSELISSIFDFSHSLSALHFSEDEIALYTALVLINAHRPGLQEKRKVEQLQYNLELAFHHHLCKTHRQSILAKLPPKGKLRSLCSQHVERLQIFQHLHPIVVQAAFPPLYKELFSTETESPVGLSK
The assay can be described thus: RORγt ThermoFluor assay (ligand binding affinity from protein thermal stability). The procedure: This approach is applicable to a wide variety of systems, and rigorous in theoretical interpretation through quantitation of equilibrium binding constants (KD).
The shift in the melting point described as a ΔTm is proportional to the concentration and affinity of the ligand.
RORγt ThermoFluor® Assay Construct
Protein and compound solutions are dispensed into black 384-well polypropylene PCR microplates (Abgene) and overlayed with silicone oil (1 μL, Fluka, type DC 200) to prevent evaporation.
Bar-coded assay plates are robotically loaded onto a thermostatically controlled PCR-type thermal block and then heated at a typical ramp-rate of 1° C./min for all experiments. Fluorescence was measured by continuous illumination with UV light (Hamamatsu LC6) supplied via fiber optic and filtered through a band-pass filter (380-400 nm; >6 OD cutoff). Fluorescence emission of the entire 384-well plate was detected by measuring light intensity using a CCD camera (Sensys, Roper Scientific) filtered to detect 500±25 nm, resulting in simultaneous and independent readings of all 384 wells. Images were collected at each temperature, and the sum of the pixel intensity in a given area of the assay plate was recorded versus temperature. Reference wells contained RORγt without compounds, and the assay conditions were as follows: • 0.065 mg/mL RORγt • 60 μM 1,8-ANS • 100 mM Hepes, pH 7.0 • 10 mM NaCl • 2.5 mM GSH • 0.002% Tween-20
Project compounds were arranged in a pre-dosed mother plate (Greiner Bio-one) wherein compounds are serially diluted in 100% DMSO by 1:2 from a high concentration of 10 mM over 12 columns within a series (column 12 is a reference well containing DMSO, no compound). The compounds were robotically dispensed directly into assay plates (1×=[…]) using a Hummingbird capillary liquid handling instrument (Digilab). Following compound dispense, protein and dye in buffer was added to achieve the final assay volume of 3 μL, followed by 1 μL of silicone oil.
On the technique in general: In DSF a fluorescence change marks the thermal transition of the protein.

Broadly, the inhibition is the relative decrease from the control value, in per cent. With `CCN(CC)c1nc2ccc(C(O)(c3ccc(Cl)cc3)c3cncn3C)cc2c(C#N)c1Cc1ccc(-n2cccn2)cc1` (single isomer, unassigned) [Example 154c, 3-(4-(1H-pyrazol-1-yl)benzyl)-6-((4-chlorophenyl)(hydroxy)(1-methyl-1H-imidazol-5-yl)methyl)-2-(diethylamino)quinoline-4-carbonitrile], the inhibition at 6 µM at human RORγt LBD was determined as 73%.

A word on the Kd: it is the constant that tells how readily two partners part at equilibrium. The term IC50 denotes the point on the concentration scale where inhibition reaches its midpoint. Read a high IC50 as lower potency. In assay [1], `COc1nc2ccc(C(O)(c3ccccn3)c3cncn3C)cc2c(Cl)c1Cc1ccc(C(F)(F)F)cc1` (stereo not drawn) [Example 68, (4-Chloro-2-methoxy-3-(4-(trifluoromethyl)benzyl)quinolin-6-yl)(1-methyl-1H-imidazol-5-yl)(pyridin-2-yl)methanol•TFA] had a Kd of 53 nM. Besides, on human RORγt LBD, the IC50 came to 65 nM and the inhibition at 6 µM came out at 101%.

For `Cn1cncc1C(O)(c1ccc(C(F)(F)F)nc1)c1ccc2nc(-n3cccn3)c(Cc3ccccc3)c(C#N)c2c1` (single isomer, unassigned) [Example 114b, 3-Benzyl-6-(hydroxy(1-methyl-1H-imidazol-5-yl)(6-(trifluoromethyl)pyridin-3-yl)methyl)-2-(1H-pyrazol-1-yl)quinoline-4-carbonitrile•TFA], the Kd in assay [1] came out at 120 nM. At human RORγt LBD, half-maximal inhibition (IC50) required 1400 nM.

With `COc1nc2ccc(C(O)(c3cnnn3C)c3cnc(C)n3C)cc2c(Cl)c1Cc1ccc(F)cc1` (single isomer, unassigned) [Example 65c], binding in assay [1] was characterised by a dissociation constant (Kd) of 0.48 nM. Besides, on human RORγt LBD, the IC50 was 7.2 nM.

With `CC(=O)N1CCC(C(O)(c2ccc3nc(C(F)(F)F)c(Cc4ccccc4)c(Cl)c3c2)c2cncn2C)CC1` (single isomer, unassigned) [Example 115c, 1-(4-((3-Benzyl-4-chloro-2-(trifluoromethyl)quinolin-6-yl)(hydroxy)(1-methyl-1H-imidazol-5-yl)methyl)piperidin-1-yl)ethanone•TFA], the affinity in assay [1], expressed as Kd, was 17 nM. On human RORγt LBD, this compound displayed a half-maximal inhibitory concentration (IC50) of 110 nM.

With `COc1c(Cc2ccccc2)c(C(F)(F)F)nc2ccc(C(O)(c3ccc(Cl)cc3)c3cncn3C)cc12` (single isomer, unassigned) [Example 101c, (3-Benzyl-4-methoxy-2-(trifluoromethyl)quinolin-6-yl)(4-chlorophenyl)(1-methyl-1H-imidazol-5-yl)methanol], at human RORγt LBD (6 μM compound, 6 µM), the “RORγt (LBD) Reporter Assay, % inhibition @ 6 μM” value was 89%.

Turning to `COc1nc2ccc(C(O)(c3cnnn3C)c3cnc(C)n3C)cc2c(Cl)c1Cc1ccc(F)cc1` (single isomer, unassigned) [Example 65b], the Kd in assay [1] was determined as 0.095 nM. Also, at human RORγt LBD, it took 22 nM to reach half-maximal inhibition (IC50) and the inhibition at 6 µM stood at 74%.

Take `COc1nc2ccc(C(c3ccc(C)nc3C)(c3cnnn3C)N(C)C)cc2c(Cl)c1Cc1ccc(C(F)(F)F)cc1` (single isomer, unassigned) [Example 122b, 1-(4-Chloro-2-methoxy-3-(4-(trifluoromethyl)benzyl)quinolin-6-yl)-1-(2,6-dimethylpyridin-3-yl)-N,N-dimethyl-1-(1-methyl-1H-1,2,3-triazol-5-yl)methanamine•TFA]: the dissociation constant Kd in assay [1] is greater than 83000 nM. Further, the IC50 against human RORγt LBD came to 1400 nM.

`COc1c(Cc2ccccc2)c(C(F)(F)F)nc2ccc(C(O)(c3ccc(C(F)(F)F)nc3)c3cncn3C)cc12` (stereo not drawn) [Example 106a, (3-Benzyl-4-methoxy-2-(trifluoromethyl)quinolin-6-yl)(1-methyl-1H-imidazol-5-yl)(6-(trifluoromethyl)pyridin-3-yl)methanol•TFA] returned an IC50 at human RORγt LBD of roughly 4000 nM.

In the case of `CCN(CC)c1nc2ccc(C(O)(c3ccc(Cl)cc3)c3cncn3C)cc2c(C#N)c1Cc1ccc(-n2cccn2)cc1` (single isomer, unassigned) [Example 154b, 3-(4-(1H-pyrazol-1-yl)benzyl)-6-((4-chlorophenyl)(hydroxy)(1-methyl-1H-imidazol-5-yl)methyl)-2-(diethylamino)quinoline-4-carbonitrile], the inhibition at 6 µM on human RORγt LBD worked out at 101%.
